In patent US20030170181A1, “Method for preventing abuse of methylphenidate” (priority 1999, published 2003):
“And” between values parts separate entries of the source, which are not always exact repeats. Identical values can stand only once. Like-named read-outs stand apart in the source and are kept apart here.

How the values were obtained:
[1] = cited from earlier work
males with ADHD = test: Combined pharmacokinetic/pharmacodynamic study of dose regimens of methylphenidate on activity and attention (OPTAX measures); type: in vivo, human; conditions: pulsatile dosing schedule 2 (PD2): 0.4, 0.4, 0.2 mg/kg at 0, 240, 480 min; compared with CD1, CD2, PD1; twelve-hour day
Description: Combined pharmacokinetic/pharmacodynamic studies of methylphenidate using different dosage regiments were designed to determine if regimens that produced stable or rising methylphenidate levels had benefits, or if fluctuating levels were necessary to prevent rapid development of tolerance (tachyphylaxis). The experimental subjects were a group of seventy-three males with ADHD recruited from the general population through a newspaper advertisement. Each subject was between the ages of 9 to 12, was objectively hyperactive, and responded positively to methylphenidate. Hyperactivity levels of each boy were determined through OPTAX™ measures, a clinical tool that provides high-resolution assessment of movement patterns during performance of a novel, monotonous, yet challenging cognitive vigilance task. Through the OPTAX™ measures, it is possible to identify differences between drug regimens based solely on dosage schedule, while holding total daily dose constant. Of the 73 original boys, thirteen were excluded based on lack of symptoms by parent interview or on lack of objective hyperactivity greater than 25% over controls on OPTAX™ measures. […]
The double blind parallel group study evaluated the efficacy of methylphenidate for the treatment of ADHD when given in a near continuous amount throughout the day and in pulsatile or fluctuating doses throughout the day. […]

[2] = Pharmacokinetics of d-threo and l-threo methylphenidate in plasma after oral administration of 40 mg immediate release racemic methylphenidate; type: in vivo, human; conditions: for fraction metabolized / bioavailability: after oral administration of commercially available racemic methylphenidate; for Cmax / Tmax / t½ / bioavailability / half-life: plasma; for Cmax / Tmax / t½ / half-life: oral 40 mg immediate release methylphenidate; for bioavailability: read-out: bioavailability in blood plasma; for half-life: read-out: t½ (converted)
[3] = Pharmacokinetics of d-threo and l-threo methylphenidate in plasma after intravenous administration of 10 mg racemic methylphenidate; conditions: for CL / MRT / Vdss / t½ / clearance / Vd / half-life: plasma, IV 10 mg racemic methylphenidate; for clearance / Vd / half-life: male, human, iv, 10 mg; for clearance: CL; for Vd: Vdss; for half-life: t½; for plasma levels of d-MPH versus l-MPH: methylphenidate administered intravenously, up to 1.5 hours post dose
Experimental: Eleven healthy male subjects were administered 10 mg of racemic methylphenidate (Ritalin®) by intravenous (IV) administration and 40 mg of racemic methylphenidate (Ritalin®) by immediate release (IR) oral administration.

[4] = racemic d,l-threo methylphenidate
[5] = individual subjects 1-11, listed as l
[6] = male, human, po, 40 mg, mean of 11 subjects, read-out: Cmax
[7] = male, human, po, 40 mg, mean of 11 subjects, read-out: Tmax
[8] = male, human, po, 40 mg, mean of 11 subjects
[9] = individual subjects 1-11, listed as d

| SMILES | fraction metabolized [2] | bioavailability ([2]; male, human, 40 mg) [%] | Cmax [2, 6] [ng/mL] | Tmax [2, 7] [h] | half-life [2, 8] [min] | clearance ([3]; mean of 11 subjects) [mL/min/kg] | Vd ([3]; mean of 11 subjects) [L/kg] | half-life ([3]; mean of 11 subjects) [min] | MRT ([3]; mean of 11 subjects) [H] | plasma levels of d-MPH versus l-MPH [3] | other results |
| --- | --- | --- | --- | --- | --- | --- | --- | --- | --- | --- | --- |
| COC(=O)C(c1ccccc1)C1CCCCN1 (racemic) [methylphenidate, α-phenyl-2-piperidine-acetic acid methyl ester] |  |  |  |  |  |  |  |  |  |  | time of maximum drug concentration ([1]; after oral administration): about two; duration of action [1, 4]: one to four; pharmacokinetic elimination half-life [1, 4]: two to three; improvement in activity (males with ADHD): most consistent improvement; improvement in attention (males with ADHD): most consistent improvement |
| COC(=O)[C@@H](c1ccccc1)[C@@H]1CCCCN1 [l-MPH, l-threo methylphenidate] | approximately 95% | 5 | 2.98 | 2.2 | 236 | 12.2 | 1.8 | 217 | 2.44 | approximately equivalent plasma levels | Cmax [2, 5]: 4.23 ng/mL and 2.49 ng/mL and 3.26 ng/mL and 1.59 ng/mL and 3.61 ng/mL and 1.49 ng/mL and 2.88 ng/mL and 4.01 ng/mL and 2.27 ng/mL and 3.03 ng/mL and 3.95 ng/mL; Tmax [2, 5]: 2.0 h and 3.0 h and 1.0 h and 1.5 h and 4.0 h; t½ [2, 5]: 4.61 h and 2.48 h and 4.06 h and 3.80 h and 3.09 h and 3.91 h and 4.24 h and 3.84 h and 3.55 h and 4.23 h and 5.41 h; CL [3, 5]: 0.56 L/kg · h^−1 and 0.82 L/kg · h^−1 and 0.59 L/kg · h^−1 and 0.41 L/kg · h^−1 and 1.05 L/kg · h^−1 and 0.26 L/kg · h^−1 and 0.89 L/kg · h^−1 and 0.49 L/kg · h^−1 and 0.78 L/kg · h^−1 and 1.11 L/kg · h^−1 and 1.02 L/kg · h^−1; MRT [3, 5]: 2.28 H and 2.02 H and 2.37 H and 2.63 H and 2.12 H and 2.50 H and 3.34 H and 1.42 H and 3.03 H and 2.84 H; Vdss [3, 5]: 1.27 L/kg and 1.86 L/kg and 1.19 L/kg and 0.97 L/kg and 2.77 L/kg and 0.56 L/kg and 2.23 L/kg and 1.63 L/kg and 1.03 L/kg and 3.36 L/kg and 2.89 L/kg; t½ [3, 5]: 2.08 h and 4.19 h and 2.63 h and 3.57 h and 5.11 h and 2.93 h and 2.21 h and 3.47 h and 4.06 h and 5.23 h |
| COC(=O)[C@H](c1ccccc1)[C@H]1CCCCN1 [d-MPH, d-threo-methylphenidate] | approximately 78% | ~22 | 18.1 | 2.4 | 341 | 6.67 | 2.65 | 358 | 6.53 | approximately equivalent plasma levels | Cmax [2, 9]: 12.42 ng/mL and 16.49 ng/mL and 13.81 ng/mL and 22.02 ng/mL and 18.52 ng/mL and 24.54 ng/mL and 22.48 ng/mL and 18.25 ng/mL and 22.91 ng/mL and 13.24 ng/mL; Tmax [2, 9]: 2.0 h and 3.0 h and 1.0 h and 4.0 h; t½ [2, 9]: 5.44 h and 6.67 h and 4.44 h and 5.83 h and 4.14 h and 6.22 h and 4.81 h and 6.31 h and 6.09 h and 5.29 h and 8.38 h; Cmax ([2]; male, human, po, 40 mg, individual subjects 1-11, read-out: Cmax): 14.7 ng/mL; CL [3, 9]: 0.32 L/kg · h^−1 and 0.45 L/kg · h^−1 and 0.33 L/kg · h^−1 and 0.28 L/kg · h^−1 and 0.53 L/kg · h^−1 and 0.20 L/kg · h^−1 and 0.63 L/kg · h^−1 and 0.34 L/kg · h^−1 and 0.44 L/kg · h^−1 and 0.41 L/kg · h^−1 and 0.42 L/kg · h^−1; MRT [3, 9]: 6.49 H and 4.63 H and 5.23 H and 5.75 H and 6.25 H and 4.68 H and 6.79 H and 5.86 H and 7.90 H and 9.44 H and 8.80 H; Vdss [3, 9]: 2.09 L/kg and 2.10 L/kg and 1.73 L/kg and 1.59 L/kg and 3.28 L/kg and 0.92 L/kg and 4.27 L/kg and 2.01 L/kg and 3.51 L/kg and 3.91 L/kg and 3.68 L/kg; t½ [3, 9]: 4.88 h and 4.81 h and 4.17 h and 5.38 h and 6.65 h and 3.97 h and 6.93 h and 4.65 h and 6.80 h and 8.68 h and 8.62 h |
